Experimental data: ChEMBL document CHEMBL3797086, “Synthesis and biological evaluation of novel structural hybrids of benzofuroxan derivatives and fluoroquinolones” (Eur J Med Chem, 2016)
≈ marks a conversion by molar mass, not a printed value.

What was measured:
Pseudomonas aeruginosa [1] = assay: microbe, parasite or virus in culture; type: functional; conditions: 9027
Escherichia coli [2] = assay: microbe, parasite or virus in culture; type: functional; conditions: F-50
Bacillus cereus [3] = assay: microbe, parasite or virus in culture; type: functional; conditions: 8035
Staphylococcus aureus [4] = assay: microbe, parasite or virus in culture; type: functional; conditions: 209p
Bacillus cereus [5] = assay: microbe, parasite or virus in culture; type: functional; conditions: Bacillus cereus, 8035, 4 h
Staphylococcus aureus [6] = assay: microbe, parasite or virus in culture; type: functional; conditions: 209p, 4 h
Escherichia coli [7] = assay: microbe, parasite or virus in culture; type: functional; conditions: F-50, 4 h
Pseudomonas aeruginosa [8] = assay: microbe, parasite or virus in culture; type: functional; conditions: Pseudomonas aeruginosa, 9027, 4 h
Bacillus cereus [9] = assay: Potency index, ratio of lomefloxacin MBC to compound MBC for Bacillus cereus 8035; type: functional
in vitro = conditions: human
[10] = red blood cells (RBC), at 0.19 to 3.9 µg/mL

Row | Structure (SMILES) | MIC (Pseudomonas aeruginosa [1]) [µg/mL] | MIC (Escherichia coli [2]) [µg/mL] | MIC (Bacillus cereus [3]) [µg/mL] | MIC (Staphylococcus aureus [4]) [µg/mL] | MBC (Bacillus cereus [5]) [µg/mL] | MBC (Staphylococcus aureus [6]) [µg/mL] | MBC (Escherichia coli [7]) [µg/mL] | MBC (Pseudomonas aeruginosa [8]) [µg/mL] | Ratio (Bacillus cereus [9]) | hemolysis at 1 h (in vitro; [10]) [%] | hemolysis at 1 h (in vitro; erythrocyte) [%]
1 | CCn1cc(C(=O)O)c(=O)c2cc(F)c(N3CCNC(C)C3)c(F)c21.O=[N+]([O-])c1c(Cl)cc2c(no[n+]2[O-])c1O (stereo not drawn) | 6.3 | 3.1 | 0.97 | 0.97 | 1.5 | 1.9 | 12.5 | 12.5 | 8 | ≤ 1 | –
2 | CC1CN(c2c(F)c(N)c3c(=O)c(C(=O)O)cn(C4CC4)c3c2F)CC(C)N1.O=[N+]([O-])c1c(Cl)cc2c(no[n+]2[O-])c1O (stereo not drawn) | 3.1 | 1.5 | 0.19 | 0.39 | 1.5 | 0.39 | 1.5 | 6.3 | – | ≤ 1 | –
3 | O=C(O)c1cn(C2CC2)c2cc(N3CCNCC3)c(F)cc2c1=O.O=[N+]([O-])c1c(Cl)cc2c(no[n+]2[O-])c1O | 15.6 | – | 7.8 | 3.9 | 62.5 | 7.8 | – | 31.3 | – | – | –
4 | CCn1cc(C(=O)O)c(=O)c2cc(F)c(N3CCNCC3)cc21.O=[N+]([O-])c1c(Cl)cc2c(no[n+]2[O-])c1O | 31.3 | – | 7.8 | 7.8 | 15.6 | 31.3 | > 500 | > 500 | – | ≤ 1 | –
5 | O=C(O)c1cn(C2CC2)c2cc(N3CCNCC3)c(F)cc2c1=O [CIPROFLOXACIN] | 0.39 (≈ 1.18 µM) | – | 0.39 (≈ 1.18 µM) | 0.19 (≈ 0.573 µM) | 6.3 (≈ 19 µM) | 1.5 (≈ 4.53 µM) | 3.1 (≈ 9.36 µM) | 3.1 (≈ 9.36 µM) | – | – | ≤ 1
6 | CCn1cc(C(=O)O)c(=O)c2cc(F)c(N3CCNC(C)C3)c(F)c21 (stereo not drawn) [LOMEFLOXACIN] | 6.3 (≈ 17.9 µM) | 3.1 (≈ 8.82 µM) | 6.3 (≈ 17.9 µM) | 0.78 (≈ 2.22 µM) | 12.5 (≈ 35.6 µM) | 3.1 (≈ 8.82 µM) | 6.3 (≈ 17.9 µM) | 12.5 (≈ 35.6 µM) | – | ≤ 1 | –
7 | CCn1cc(C(=O)O)c(=O)c2cc(F)c(N3CCNCC3)cc21 [NORFLOXACIN] | 3.1 (≈ 9.71 µM) | 0.19 (≈ 0.595 µM) | 1.5 (≈ 4.7 µM) | 0.39 (≈ 1.22 µM) | 3.1 (≈ 9.71 µM) | 6.3 (≈ 19.7 µM) | 3.1 (≈ 9.71 µM) | 25 (≈ 78.3 µM) | – | ≤ 1 | –
8 | C[C@@H]1CN(c2c(F)c(N)c3c(=O)c(C(=O)O)cn(C4CC4)c3c2F)C[C@H](C)N1 [SPARFLOXACIN] | 0.78 (≈ 1.99 µM) | 0.19 (≈ 0.484 µM) | 0.19 (≈ 0.484 µM) | 0.19 (≈ 0.484 µM) | 3.1 (≈ 7.9 µM) | 0.39 (≈ 0.994 µM) | 3.1 (≈ 7.9 µM) | 3.1 (≈ 7.9 µM) | – | ≤ 1 | –
